Common to all, as to assay type: in vivo
One assay has as its system Nightshade. As to the kind of experiment: Test C preemergence. The conditions noted are these: Rate 250 g/ha, visual evaluation after 12 to 14 days.
For assay [1], the system named is duck salad (Heteranthera limosa). The assay is described as follows: Test C flooded paddy test. The conditions noted are these: for Ducksalad plant response rating: Flooded Paddy, scale 0 to 100, 0 no effect, 100 complete control; for Plant response rating, Ducksalad: flooded paddy test, scale 0 to 100 (0 no effect, 100 complete control). The essentials: (§1)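 Plants were grown to the 2-leaf stage under flooded paddy conditions and treated. They were then kept in a greenhouse for 12 to 14 days and visually rated against untreated controls on a 0–100 scale, where 0 is no effect and 100 is complete control.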

The test system of assay [2] is smallflower flatsedge (Cyperus difformis). As to the kind of experiment: Test C flooded paddy test. The settings on record: for Flatsedge plant response rating: Flooded Paddy, scale 0 to 100, 0 no effect, 100 complete control; for Plant response rating, Flatsedge: flooded paddy test, scale 0 to 100 (0 no effect, 100 complete control). The method, boiled down: as §1
The subject of assay [3] is rice (Oryza saliva). The assay is described as follows: Test C flooded paddy test. The settings on record: for Rice plant response rating: Flooded Paddy, scale 0 to 100, 0 no effect, 100 complete control; for Plant response rating, Rice: flooded paddy test, scale 0 to 100 (0 no effect, 100 complete control). The method, boiled down:
as §1

For assay [4], the system named is barnyardgrass (Echinochloa crus-galli). The assay is described as follows: Test C flooded paddy test. The conditions noted are these: for Barnyardgrass plant response rating: Flooded Paddy, scale 0 to 100, 0 no effect, 100 complete control; for Plant response rating, Barnyardgrass: flooded paddy test, scale 0 to 100 (0 no effect, 100 complete control). The method, boiled down:
as §1

In the next assay the test system is Sunflower. The assay is described as follows: Test C preemergence. The conditions noted are these: Rate 125 g/ha, scale 0 to 100, 0 no effect, 100 complete control.
The subject of assay [5] is duck salad (Heteranthera limosa). As to the kind of experiment: Test B flooded paddy test. The settings on record: Rate 1000 g/ha, scale of 0 to 100 where 0 is no effect and 100 is complete control, visually evaluated after 13 to 15 days. The essentials: (§2)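 Plants were grown to the 2-leaf stage in flooded paddy conditions before treatment with the formulated test chemicals. After 13 to 15 days in a greenhouse, each species was visually compared with untreated controls and rated from 0 (no effect) to 100 (complete control).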

In assay [6] the test system is smallflower flatsedge (Cyperus difformis). The assay is described as follows: Test B flooded paddy test. The settings on record: Rate 1000 g/ha, scale of 0 to 100 where 0 is no effect and 100 is complete control, visually evaluated after 13 to 15 days. The method, boiled down:
as §2

In assay [7] the test system is rice (Oryza saliva). The assay is described as follows: Test B flooded paddy test. The settings on record: Rate 1000 g/ha, scale of 0 to 100 where 0 is no effect and 100 is complete control, visually evaluated after 13 to 15 days. The essentials:
as §2

Assay [8] concerns barnyardgrass (Echinochloa crus-galli). The assay is described as follows: Test B flooded paddy test. The conditions noted are these: Rate 1000 g/ha, scale of 0 to 100 where 0 is no effect and 100 is complete control, visually evaluated after 13 to 15 days. The essentials:
as §2

Turning to `CCC(C)c1ccn(C2SCN(c3cccc(OC(F)(F)F)c3)C2=O)n1` (centres unmarked) [Compound 32], the “Plant response rating (0 to 100), Nightshade” value in the assay on Nightshade was determined as 90. Moreover, the “Ducksalad plant response rating” value is 100 in assay [1] (Rate 250 g/ha) and 80 in assay [1] (Rate 500 g/ha). For the same compound, the “Plant response rating, Ducksalad” value in assay [1] (Rate 62 g/ha) stood at 50; in [1] (Rate 125 g/ha), 80; in assay [5], 100. The “Flatsedge plant response rating” value in [2] (Rate 250 g/ha) and in [2] (Rate 500 g/ha) was 100 in each case. Further, the “Plant response rating, Flatsedge” value in assay [2] (Rate 62 g/ha), in [2] (Rate 125 g/ha) and in [6] was 100 throughout. The “Rice plant response rating” value in the assay on rice (Oryza saliva) [3] (Rate 250 g/ha) and in the assay on rice (Oryza saliva) [3] (Rate 500 g/ha) was 100 in each case. Moreover, the entries for the “Plant response rating, Rice” value in the assay with rice (Oryza saliva) [3] (Rate 62 g/ha), with rice (Oryza saliva) [3] (Rate 125 g/ha) and with rice (Oryza saliva) [7] were 0, 30 and 100, respectively. Also, the “Barnyardgrass plant response rating” value in [4] (Rate 250 g/ha) and in [4] (Rate 500 g/ha) was 100 each time. The “Plant response rating, Barnyardgrass” value in assay [4] (Rate 62 g/ha) was found to be 20; in assay [4] (Rate 125 g/ha), 100; in assay [8] it was 100. In addition, the “Plant response rating, Sunflower” value in the assay on Sunflower is on record as 0.
Consider `CC(C)(C)c1ccn(C2CCN(c3ccc(Cl)c(Br)c3)C2=O)n1` (centres unmarked) [Compound 56], for which, in the assay with Nightshade, the “Plant response rating (0 to 100), Nightshade” value worked out at 0. Also, the “Ducksalad plant response rating” value in assay [1] (Rate 250 g/ha) and in assay [1] (Rate 500 g/ha) was 0 throughout. Besides, the “Plant response rating, Ducksalad” value in assay [1] (Rate 62 g/ha) was found to be 0; in [1] (Rate 125 g/ha), 0; in assay [5] it was 20. Besides, the “Flatsedge plant response rating” value in assay [2] (Rate 250 g/ha) and in assay [2] (Rate 500 g/ha) was 90 throughout. Also, the entries for the “Plant response rating, Flatsedge” value in assay [2] (Rate 62 g/ha), in assay [2] (Rate 125 g/ha) and in [6] were 80, 80 and 90, respectively. For the same compound, the “Rice plant response rating” value in the assay on rice (Oryza saliva) [3] (Rate 250 g/ha) and in the assay with rice (Oryza saliva) [3] (Rate 500 g/ha) was 0 in each case. The “Plant response rating, Rice” value in the assay with rice (Oryza saliva) [3] (Rate 62 g/ha), in the assay with rice (Oryza saliva) [3] (Rate 125 g/ha) and in the assay with rice (Oryza saliva) [7] was 0 in each case. Further, the “Barnyardgrass plant response rating” value in assay [4] (Rate 250 g/ha) and in assay [4] (Rate 500 g/ha) was 30 in each case. Also, the “Plant response rating, Barnyardgrass” value in [4] (Rate 62 g/ha) came to 0; in assay [4] (Rate 125 g/ha), 30; in assay [8], 80. Further, in the assay on Sunflower, the “Plant response rating, Sunflower” value was 0.
As to `O=C1C(n2ccc(C3CCCCC3)n2)OCN1c1cccc(C(F)(F)F)c1` (centres unmarked) [Compound 51], the “Plant response rating (0 to 100), Nightshade” value in the assay on Nightshade was found to be 0. For the same compound, the “Ducksalad plant response rating” value in assay [1] (Rate 250 g/ha) was determined as 40; in assay [1] (Rate 500 g/ha) it was 70. Moreover, the “Plant response rating, Ducksalad” value in [1] (Rate 62 g/ha) was 0; in assay [1] (Rate 125 g/ha), 0; in assay [5] it was 100. The “Flatsedge plant response rating” value in [2] (Rate 250 g/ha) and in [2] (Rate 500 g/ha) was 100 in each case. The “Plant response rating, Flatsedge” value in assay [2] (Rate 62 g/ha) is listed as 40; in assay [2] (Rate 125 g/ha) it was 90; in assay [6], 100. Moreover, the “Rice plant response rating” value in the assay with rice (Oryza saliva) [3] (Rate 250 g/ha) and in the assay with rice (Oryza saliva) [3] (Rate 500 g/ha) was 0 in each case. In addition, the figures for the “Plant response rating, Rice” value with rice (Oryza saliva) [3] (Rate 62 g/ha), in the assay with rice (Oryza saliva) [3] (Rate 125 g/ha) and with rice (Oryza saliva) [7] were 0, 0 and 30, respectively. In addition, in assay [4] (Rate 250 g/ha), the “Barnyardgrass plant response rating” value is 90. Also, the “Plant response rating, Barnyardgrass” value in assay [4] (Rate 62 g/ha) is listed as 20; in assay [4] (Rate 125 g/ha), 20; in assay [8] it was 100. The “Plant response rating, Sunflower” value in the assay on Sunflower was found to be 0.

These data come from patent US7138361B2, “Herbicidal heterocycles” (E. I. du Pont de Nemours and Company, priority 2000, dated 2006).
